Test results reported in patent US20250019385A1, “SPIROCYCLIC ANNULATED 2-AMINO-3-CYANO THIOPHENES AND DERIVATIVES FOR THE TREATMENT OF CANCER” (Boehringer Ingelheim International GmbH, priority 2023, published 2025).

Columns and labels:
[1] = target: KRAS (G12D)::SOS1 protein-protein interaction (Homo sapiens (Human), UniProt P01116, G12D); assay: KRAS::SOS1 AlphaScreen binding assay (KRAS G12D); settings: GDP
In short: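 AlphaScreen assay with KRAS G12D (1-169, 6His/avi-tagged, 10 nM), GST-SOS1 564-1049 (5 nM) and GDP (10 μM) in PBS, 0.1% BSA, 0.05% Tween 20; compound up to 100 μM top concentration, eleven fivefold dilutions in duplicate. After 30 min, glutathione acceptor and streptavidin donor beads (10 μg/mL each) were added and signal read after a further 60 min at room temperature in the dark; IC50 from 4-parameter logistic fit.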

[2] = target: KRAS (G12C)::SOS1 protein-protein interaction (Homo sapiens (Human), UniProt P01116, C118S/C51S/C80L/G12C); assay: KRAS::SOS1 AlphaScreen binding assay (KRAS G12C); settings: GDP
In short: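 Biotinylated KRAS G12C 1-169 (C51S/C80L/C118S, 7.5 nM) and GST-SOS1 564-1049 (5 nM) with 10 μM GDP in PBS, 0.1% BSA, 0.05% Tween 20 were incubated 30 min with compounds (top 100 μM, eleven fivefold dilutions). AlphaScreen beads were then added for 60 min at room temperature in the dark. IC50 came from a 4-parameter logistic fit.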

AsPC-1 cells = assay: AsPC-1 CTG proliferation assay (120 h) (pancreatic cancer, G12D); type: cell-based; settings: Homo sapiens, ASPC1
In short: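 AsPC-1 cells plated overnight, then exposed to logarithmic compound dose series (duplicates) for 120 h at 37° C. Viability by CellTiter-Glo luminescence as percent of DMSO controls, with a T0 reading at compound addition; IC50 from four-parameter non-linear regression.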

LOVO cells = assay: LOVO CTG proliferation assay (120 h) (CRC, G13D); type: cell-based; settings: Homo sapiens
In short: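 Cells seeded at 1000/well in DMEM + 10% FCS, dosed next day with a logarithmic compound series, technical duplicates, for 120 h. Viability by CellTiter-Glo luminescence as percent of DMSO control; IC50 from four-parameter non-linear regression.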

KRAS (G12C)::SOS1 protein-protein interaction, sequence (P01116 other isoform, or with tags, fused parts or gaps G12C/C51S/C80L/C118S): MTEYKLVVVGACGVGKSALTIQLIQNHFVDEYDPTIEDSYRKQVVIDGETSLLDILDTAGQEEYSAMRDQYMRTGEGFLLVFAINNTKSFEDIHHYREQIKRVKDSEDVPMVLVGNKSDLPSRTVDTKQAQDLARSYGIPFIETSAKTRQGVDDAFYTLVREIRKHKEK
KRAS (G12D)::SOS1 protein-protein interaction, sequence (P01116 other isoform, or with tags, fused parts or gaps G12D): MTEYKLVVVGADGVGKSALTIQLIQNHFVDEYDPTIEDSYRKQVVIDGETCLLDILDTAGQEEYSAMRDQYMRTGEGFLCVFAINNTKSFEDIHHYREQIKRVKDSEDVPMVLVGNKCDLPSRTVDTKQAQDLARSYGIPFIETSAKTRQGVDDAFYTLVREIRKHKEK

| SMILES | IC50 [1] | IC50 [2] | IC50 (AsPC-1 cells) | IC50 (LOVO cells) |
| --- | --- | --- | --- | --- |
| COCCn1c(=O)n(C)c2c(O[C@@H](C)[C@@H]3CCCN3C)nc(-c3onc4c3CCC[C@@]43CCCc4sc(N)c(C#N)c43)nc21 [I-7] | 5 nM | 3 nM | 4830 nM | 563 nM |
| C[C@H](Oc1nc(-c2noc3c2CCC[C@@]32CCCc3sc(N)c(C#N)c32)nc2c1CNC[C@]21CCOC1)[C@@H]1CCCN1C [II-15] | 1 nM | 2 nM | 179 nM | 17 nM |
